In US9873904B2, “Detection of acid-producing bacteria” (3M INNOVATIVE PROPERTIES COMPANY, priority 2009, dated 2018):
Where a name gives a salt, the structure may show the parent alone. Read-outs that look alike come from different tables or passages of the source.

Legend:
[1] = tested on: L. lactis subspecies lactis; type: cell-based, Lactococcus lactis subspecies lactis; conditions: 30 C
From the text: (§1) DIFCO MRS broth was obtained from BD-Diagnostic Systems (Sparks, Md.).
(§2) Four strains of lactic acid-producing bacteria were isolated from processed meats. Two of the cultures were identified as Leuconostoc mesenteroides and Weissella viridescens, Lactococcus lactis subspecies lactis and Streptococcus oralis.
(§3) Bromcresol purple (BCP) pH indicators was obtained from Eastman Kodak (Rochester, N.Y.). Chlorophenol red (CPR) (CAS NO. 4430-20-0) was obtained from Sigma-Aldrich (St. Louis, Mo.). The pH indicators were individually added to MRS broth to obtainfinal concentrations of BCP or CPR of 0.5 mM. After dissolving the pH indicator, the solutions were filter-sterilized.
(§4) Bacterial cultures were prepared by inoculating pure cultures into tryptic soy broth or MRS broth. The inoculated broth was incubated overnight at 25° C. The overnight cultures were diluted in the MRS broth (containing bromcresol purple) to obtain a suspension of approximately 10-100 colony-forming units (CFU) per milliliter. […] Inoculated plates were incubated at temperatures at 25°, 30° and 32° C., respectively. The plates were visually inspected for signs of bacterial growth.
(§5) A concentrated solution of sterile chlorophenol red was added to the MRS diluent as described in Example 2. A concentrated solution of sterile dipotassium phosphate (pH 7.0+/−0.2) was added to the MRS diluent to provide an additional 28 mM phosphate buffer in the diluent. Lactic acid bacterial cultures were prepared and diluted into the MRS/chlorophenol red solution as described in Example 1 with the exception that S. oralis was not tested in this experiment. […] The plates were incubated at 30° C. and the plates were visually inspected for signs of bacterial growth.
as §5, with “provide and” for “provide an”

S. oralis = type: cell-based, Streptococcus oralis; conditions: Example 1; indicator 0.02 g/l or 0.04 g/l; buffer addition None; 25 C, 30 C; 40-72 hr
From the text: as §1, §2, §3, §4
A concentrated solution of sterile chlorophenol red was added to the MRS diluent as described in Example 2. […]

Leuconostoc = type: cell-based, Leuconostoc mesenteroides; conditions: 30 C
From the text: as §1, §2, §3, §4, §5
as §5, with “provide and” for “provide an”

Weissella = type: cell-based, Weissella viridescens; conditions: 30 C
From the text: as §1, §2, §3, §4, §5
as §5, with “provide and” for “provide an”

[2] = tested on: L. lactis subspecies lactis; assay: Colony appearance on thin film culture devices containing pH indicators (MRS/Letheen diluent); type: cell-based, Lactococcus lactis subspecies lactis; conditions: indicator 0.5 mM
From the text: (§6) The aliquot were separately filter-sterilized.

L. mesenteroides = assay: as above; type: cell-based, Leuconostoc mesenteroides; conditions: indicator 0.5 mM
From the text: as §6

Lactobacillus brevis [3] = assay: Detection of lactic acid bacteria with Nystatin on Plate I; type: cell-based; conditions: 500 U/mL Nystatin, 28 degrees Celsius, 48-144 hr, 99.9% CO2
Method: (§7) Overnight cultures of Lactobacillus brevis, Pediococcus damnosus and 5 strains of Saccharomyces cerevisiae were grown in MRS broth (bacteria cultures) or yeast peptone dextrose (YPD) broth (yeast cultures). These cultures were serially diluted, yielding suspensions that contained approximately 100 cfu/mL of the organisms. A second series of suspensions were prepared and 500 U/mL Nystatin (CAS No. 1400-61-9 from Sigma) were added to the suspensions. A stock solution was prepared by adding Nystatin solids to 100% ethanol to make a solution of 25,000 U/mL which was then added to the bacteria/yeast suspensions to obtain the desired Nystatin concentration. One milliliter of each of the different solutions was then inoculated onto Plate I. The inoculated plates were incubated at 28 degrees Celsius for 48-144 hr in a 99.9% CO2 incubator.

Pediococcus damnosus = assay: as above; type: cell-based; conditions: 500 U/mL Nystatin, 28 degrees Celsius, 48-144 hr, 99.9% CO2
Method: as §7

Saccharomyces cerevisiae [4] = assay: as above; type: cell-based; conditions: 500 U/mL Nystatin, 28 degrees Celsius, 48-144 hr, 99.9% CO2
Method: as §7

Lactobacillus brevis [5] = assay: Colony growth with cycloheximide on Plate I; type: cell-based; conditions: with cycloheximide 100 ppm, 28° C., 48 hr, 99.9% carbon dioxide
Method: (§8) Overnight cultures of Lactobacillus brevis in MRS broth and Saccharomyces cerevisiae in yeast peptone dextrose (YPD) broth were prepared as described in Example 7. The cultures were serially diluted to obtain suspensions, each containing approximately 100 cfu/ml of the individual species (either L. brevis or S. cerevisiae). A third suspension was prepared containing 100 cfu/mL total of both species. A second set of 3 suspensions was prepared in the same manner (only L. brevis, only S. cerevisiae, and both organisms) except that each final solution also contained 100 ppm (10 mg/mL) cycloheximide ((CAS No. 66-81-9), sold under the tradename Actidione and obtained from Sigma (Fluka). The cycloheximide was added by using a stock solution of cycloheximide prepared by dissolving 100 ppm of cycloheximide to Butterfield's Buffer and sterile filtering the solution through a 0.2 μm filter. The stock solution was added to the diluent buffer.
(§9) One milliliter of each of the bacterial suspensions was used to inoculate Plate I. The plates were incubated at 28° C. for 48 hr in an incubator having an environment of 99.9% carbon dioxide. Growth indicates the presence of colonies.

Saccharomyces cerevisiae [6] = assay: Colony growth with cycloheximide on Plate I; type: cell-based
Method: as §8, with “A second set of 3 suspensions was prepared in the same manner (only L. brevis, only S. cerevisiae, and both organisms) except that each final solution also contained 100 ppm (10 mg/mL) cycloheximide ((CAS No. 66-81-9), sold under the tradename Actidione and obtained from Sigma (Fluka).” left out
as §9

[7] = tested on: Lactobacillus brevis and Saccharomyces; assay: Colony growth with cycloheximide on Plate I; type: cell-based, Lactobacillus brevis and Saccharomyces cerevisiae
Method: as §8, with “A second set of 3 suspensions was prepared in the same manner (only L. brevis, only S. cerevisiae, and both organisms) except that each final solution also contained 100 ppm (10 mg/mL) cycloheximide ((CAS No. 66-81-9), sold under the tradename Actidione and obtained from Sigma (Fluka).” left out
as §9

[8] = Example 1, indicator 0.02 g/l or 0.04 g/l, buffer addition None, 25 C, 18-24 hr
[9] = Example 1, indicator 0.02 g/l or 0.04 g/l, buffer addition None, 25 C, 40-72 hr
[10] = Example 2, indicator 0.21 g/l, buffer addition None, 18-24 hr
[11] = Example 2, indicator 0.21 g/l, buffer addition None, 40-72 hr
[12] = Example 3, indicator 0.21 g/l, buffer addition 28 mM, 18-24 hr
[13] = Example 3, indicator 0.21 g/l, buffer addition 28 mM, 40-72 hr
[14] = with cycloheximide 100 ppm, 28° C., 48 hr, 99.9% carbon dioxide

Cc1cc(C2(c3cc(C)c(O)c(Br)c3)OS(=O)(=O)c3ccccc32)cc(Br)c1O [Bromcresol Purple, Bromcresol purple]
Observations [1, 8]: L. lactis subspecies lactis: Colonies with acid zones. No gas bubbles.
Observations [1, 9]: L. lactis subspecies lactis: Colonies with acid zones. No gas bubbles.
Observations (S. oralis): S. oralis: Acid zones. No visible colonies or gas bubbles.
Observations (Leuconostoc; [9]): Leuconostoc: Acid zones. No visible colonies or gas bubbles.
Observations (Weissella; [8]): Weissella: Acid zones without visible colonies. No gas bubbles.
Observations (Weissella; [9]): Weissella: Acid zones and gas bubbles. Pale colonies.

Cc1c(C2(c3cc(Br)c(O)c(Br)c3C)OS(=O)(=O)c3ccccc32)cc(Br)c(O)c1Br [Bromocresol Green, Bromocresol Green sodium salt]
24-hour Results ([2]; 32° C.): Pale yellow zones
24-hour Results (L. mesenteroides; 25° C.): Colonies, yellow zones
24-hour Results (L. mesenteroides; 32° C.): Colonies, yellow zones

O=C1C(Br)=CC(=C(c2cc(Br)c(O)c(Br)c2)c2ccccc2S(=O)(=O)[O-])C=C1Br.[Na+] [Bromphenol Blue, Bromphenol Blue sodium salt]
48-hour Results ([2]; 25° C.): Pale colonies
72-hour Results ([2]; 25° C.): Colonies, gas
48-hour Results ([2]; 32° C.): pale colonies
72-hour Results ([2]; 32° C.): Colonies, gas
48-hour Results (L. mesenteroides; 32° C.): Pale colonies, gas bubbles
72-hour Results (L. mesenteroides; 32° C.): Pale colonies, gas bubbles

O=S1(=O)OC(c2ccc(O)c(Cl)c2)(c2ccc(O)c(Cl)c2)c2ccccc21 [Chlorophenol Red, Chlorophenol red]
Observations [1, 10]: Acid zones were visible for all three microorganisms tested.
Observations [1, 11]: L. lactis subspecies lactis: Colonies with acid zones and gas bubbles.
Observations [1, 12]: Acid zones visible with all three strains.
Observations [1, 13]: L. lactis subspecies lactis: Colonies with acid zones and gas bubbles.
Observations (Leuconostoc; [10]): Acid zones were visible for all three microorganisms tested.
Observations (Leuconostoc; [11]): Leuconostoc: Acid zones and gas bubbles. No visible colonies.
Observations (Leuconostoc; [12]): Acid zones visible with all three strains.
Observations (Leuconostoc; [13]): Leuconostoc: Acid zones. No visible colonies.
Observations (Weissella; [10]): Acid zones were visible for all three microorganisms tested.
Observations (Weissella; [11]): Weissella: Colonies with acid zones and gas bubbles.
Observations (Weissella; [12]): Acid zones visible with all three strains.
Observations (Weissella; [13]): Weissella: Colonies with acid zones and gas bubbles.
24-hour Results ([2]; 32° C.): Colonies; yellow zones
48-hour Results ([2]; 32° C.): Colonies; yellow zones
24-hour Results (L. mesenteroides; 32° C.): Yellow zones
48-hour Results (L. mesenteroides; 32° C.): Yellow zones, gas

C[C@@H]1[C@H](O)[C@@H](C)/C=C/C=C/CC/C=C/C=C/C=C/C=C/C(O[C@H]2O[C@H](C)[C@@H](O)[C@H](N)[C@@H]2O)CC2O[C@](O)(CC(O)C(O)CCC(O)CC(O)CC(O)CC(=O)O[C@H]1C)CC(O)C2C(=O)O (stereo partly drawn) [Nystatin]
colony growth (Lactobacillus brevis [3]): grew whether Nystatin was present or not
colony growth (Pediococcus damnosus): grew whether Nystatin was present or not
colony growth (Saccharomyces cerevisiae [4]): grew only on the plates that did not contain Nystatin

C[C@@H]1C[C@@H]([C@H](O)CC2CC(=O)NC(=O)C2)C(=O)[C@@H](C)C1 [cycloheximide]
Observation (colony growth) (Lactobacillus brevis [5]): Growth - 1 distinct colony morphology
growth (Saccharomyces cerevisiae [6]; cycloheximide 5, 10, 40 and 100 ppm, only S. cerevisiae): no growth
Observation (colony growth) (Saccharomyces cerevisiae [6]; [14]): No growth
colony morphology ([7]; cycloheximide 5, 10, 40 and 100 ppm): one distinct colony morphology
Observation (colony growth) [7, 14]: Growth - 1 distinct colony morphology
